Measurements from US8729133B2, “Method for treating cancer” (Cornell University, priority 2006, dated 2014).

Experiments:
[1] = test system: brain metastases; assay: Randomized study: whole brain radiotherapy with or without oral L-Arginine hydrochloride in patients with unresectable brain metastases (response, survival); format: in vivo, human
Protocol: (§1) L-Arginine hydrochloride was orally administered five times a week, Monday to Friday, during the radiation therapy (RT) course at a dose of about 10 grams dissolved/mixed with about 100 ml of water and administered to a patient/host from about 15-55 to about 20-65 minutes before each fraction of RT. Radiation therapy was administered to patients using techniques known to one skilled in the art of treating cancer patients. After administering L-Arginine hydrochloride to a patient as discussed above, change in lactate levels in the tumor cells was monitored by localized ^1H NMR spectroscopy and compared to those who received placebo.
Patients with imagenologically proven brain metastases and histologically proven primary or metastatic cancer were eligible for the study. The eligibility criteria included the following: RPA-RTOG class II, measurable brain lesion/s by contrast-enhanced CT or MRI, absolute granulocyte count >2000/mm^3, hemoglobin […] (patients with lower levels were transfused), normal renal (serum creatinine <1.5 mg/dL and 24-h creatinine clearance >60 mL/min) and hepatic functions (aspartate aminotransferase and alanine aminotransferase <2.5 times the upper limit of normal) and no prior treatment for brain metastases. A neurosurgeon examined all eligible patients and their complimentary studies to determine whether their metastases were resectable. Eligible patients with unresectable metastases were randomized.
The present study was performed in accordance with the ethical standards of the Helsinki Declaration. Within two weeks after the diagnosis of brain metastases, eligible patients were randomly assigned to receive whole brain radiotherapy alone (the control group) or L-Arginine monochlorohydrate (L-Arginine Hydrochloride, L-A-HCl) and whole brain radiotherapy. L-Arginine was orally administered, once a day Monday to Friday, during the radiation therapy (RT) course at a dose of about 10 grams, immediately reconstituted with 100 ml of water and given about 55 to 65 minutes before each fraction of RT.
During RT, all patients were irradiated with ^60Co beams. The whole-brain, of all the individuals enrolled in the study, was treated by two lateral fields to a total dose of 32 Gy in 20 fractions of 1.6 Gy each two times a day with a 6 hours interval between treatments (10 days), followed by a 22.4 Gy boost over the evident lesions with the same fractionation schedule (7 days). The spinal cord dose was limited to 40 Gy.
The baseline evaluation included a complete history and physical examination, brain contrast-enhanced CT scans and/or MRI scans, chest radiographs, blood counts, blood chemistry and electrocardiography. A Mini Mental Status Exam (MMSE) was performed for screening intellectual impairment. During the treatment, patients were to be seen three times a week, then weekly for up to one month after finishing radiotherapy, and then monthly until the patient died. All patients were followed up, by the radiation and medical oncology research physicians, without further treatment.
The following criteria defined radiological response and progression. Complete response was defined as a disappearance of all brain lesions seen on contrast-enhanced CT or MRI scans for at least 1 month. Partial response required at least a 50% decrease in brain lesions for at least 1 month. Stable disease was defined as any brain lesion with shrinkage less than 50% or growth less than 25%. Disease progression was defined as any brain lesion in the brain that enlarged more than 25% or any new brain lesion. For measurable disease, standard bi-perpendicular diameters of the two-dimensional tumor image at maximum dimension were applied.
The following criteria defined symptomatic response and progression. Complete response was defined as disappearance of all neurological-related signs or symptoms seen during a physical exam for at least 1 month, with stable or decreasing steroid dose. […]

[2] = test system: lactate levels in brain metastases tumors; assay: Tumor lactate determination by localized 1H MR spectroscopy before and after oral L-Arginine; format: in vivo, human
Protocol: as §1
Single-voxel MR spectroscopic data were obtained by using a double-SE point-resolved spectroscopy (PRESS) sequence with one-pulse water signal suppression mainly from metabolically active fleshy parts (contrast-enhanced areas) of the lesions, while avoiding contamination from scalp fat. Appropriate automatic shimming and water suppression were achieved by using 4-8-Hz line width, 1-kHz spectral width, and the automated software developed by the manufacturer. Spectroscopic data from cubic volumes of 1.5×1.5×1.5-2×2×3 cm were obtained by using the PRESS sequence with 1500/135 ms (TR/TE), 128-256 averages, 1024 data points, and 4000-Hz spectrum width. In most examinations, a voxel size of 2×2×2 cm3 was employed.
The time domain signal intensity was apodized and processed to remove the residual water signal. Post-processing of the spectroscopic data consisted of frequency shift and phase and linear baseline corrections after Fourier transformation. […] Lactate (Lac) peak was calculated at 1.35 ppm (an inverted β-methyl doublet). […] Lactate values were calculated automatically from the area under the peak by using the standard commercial software program provided by the manufacturer.
L-A-HCl was administered (as stated) to 30 patients with unresectable brain metastases. […] Patients were assessed by brain NMR and/or TC (to asses tumor response) and proton magnetic spectroscopy (to determine the metabolic profile of tumors). […]

[3] = 30 patients with unresectable brain metastases vs 30 placebo

In the case of `Cl.N=C(N)NCCC[C@H](N)C(=O)O` [L-Arginine, S(+)-2-Amino-5-[(aminoiminomethyl)amino]pentanoic acid monohydrochloride], the “survival compared to placebo” value [1, 3] is reported as “higher”, the “tumoral response rates compared to placebo” value [1, 3] is reported as “higher” and the “Overall Response: Complete” value ([1]; RT-Arginine n = 22) is reported as 6 number of patients. For the same molecule, the “Overall Response: Partial” value ([1]; RT-Arginine n = 22) was 13 number of patients, the “Overall Response: Stable Disease” value ([1]; RT-Arginine n = 22) was 2 (9%) number of patients (%) and the “Radiologic Response: Complete” value ([1]; RT-Arginine n = 22) was 6 number of patients. For the same molecule, the “Radiologic Response: Partial” value ([1]; RT-Arginine n = 22) was 13 number of patients, the “Radiologic Response: Progressive Disease” value ([1]; RT-Arginine n = 22) was 0 number of patients and the “Radiologic Response: Stable Disease” value ([1]; RT-Arginine n = 22) was 2 (9%) number of patients (%). For the same molecule, the “Symptomatic Response: Complete” value ([1]; RT-Arginine n = 22) was 20 number of patients, the “Symptomatic Response: Partial” value ([1]; RT-Arginine n = 22) was 1 number of patients and the “Symptomatic Response: Progressive Disease” value ([1]; RT-Arginine n = 22) was 0 (0%) number of patients (%). For the same molecule, the “Symptomatic Response: Stable Disease” value ([1]; RT-Arginine n = 22) was 1 (5%) number of patients (%), the “Overall Response: Total responses” value ([1]; RT-Arginine n = 22, ECOG response guidelines) was 18 (81%) number of patients (%) and the “Symptomatic Response: Total responses” value ([1]; RT-Arginine n = 22, about 10 grams orally before each RT fraction) was 21 (95%) number of patients (%). The “Radiologic Response: Total responses” value ([1]; RT-Arginine n = 22, contrast-enhanced CT or MRI) was 18 (81%) number of patients (%), the “Overall Response: Progressive Disease” value ([1]; RT-Arginine n = 22, not assessed counted as progressive) was 1 (5%) number of patients (%) and the “Radiologic Response: Not assessed” value ([1]; RT-Arginine n = 22, patients without follow-up scan) was 1 (5%) number of patients (%). For the same molecule, the median survival time ([1]; patients with brain metastases, about 10 grams L-Arginine orally, Kaplan-Meier (FIG. 1), placebo 2 months) was 8 months, the “metabolic pattern of the tumors by spectroscopy” value ([2]; about 10 grams orally, in about 60 minutes) was “favorably modified” and the “drop of lactate levels in tumors” value ([2]; brain metastases, about 60 minutes after about 10 grams orally, NMR (FIG. 2), placebo about 10%) was “about 50%”. The “lactate peak in tumor NMR spectrum after vs before administration” value ([2]; brain metastasis, about 60 minutes after about 10 grams orally) was “decrease”.
